The source of these data is ChEMBL document CHEMBL1828590 (J Med Chem, 2011).

Molecules are shown by their SMILES.

Data set [1] concerns COLO 205. The data set is described as follows: Antiproliferative activity against human COLO205 cells after 96 hrs by celltiter 96 assay. Type of data set: functional, cell-based. The settings on record: COLO 205, 96 h.
The test system of data set [2] is A2780. The data set is described as follows: Antiproliferative activity against human A2780 cells after 96 hrs by celltiter 96 assay. The settings on record: A2780, 96 h. The class given is functional, cell-based.
Data set [3] concerns HCT-116. The data set is described as follows: Antiproliferative activity against human HCT116 cells after 96 hrs by celltiter 96 assay. The class given is functional, cell-based. The settings on record: HCT-116, 96 h.
The test system of data set [4] is PC-3. The data set is described as follows: Antiproliferative activity against human PC3 cells after 96 hrs by celltiter 96 assay. The class given is functional, cell-based. Particulars: PC-3, 96 h.
Data set [5] concerns the target Histone deacetylase 1 (Homo sapiens, UniProt Q13547).
Description: Competitive inhibition of HDAC1 using KI-104 as substrate by fluorescence assay
Data set [6] concerns the target Histone deacetylase 4 (Homo sapiens, UniProt P56524).
Description: Competitive inhibition of HDAC4 using KI-104 as substrate by fluorescence assay
For data set [7], the target named is Histone deacetylase 5 (Homo sapiens, UniProt Q9UQL6).
Sequence of Histone deacetylase 5 (Q9UQL6 whole entry): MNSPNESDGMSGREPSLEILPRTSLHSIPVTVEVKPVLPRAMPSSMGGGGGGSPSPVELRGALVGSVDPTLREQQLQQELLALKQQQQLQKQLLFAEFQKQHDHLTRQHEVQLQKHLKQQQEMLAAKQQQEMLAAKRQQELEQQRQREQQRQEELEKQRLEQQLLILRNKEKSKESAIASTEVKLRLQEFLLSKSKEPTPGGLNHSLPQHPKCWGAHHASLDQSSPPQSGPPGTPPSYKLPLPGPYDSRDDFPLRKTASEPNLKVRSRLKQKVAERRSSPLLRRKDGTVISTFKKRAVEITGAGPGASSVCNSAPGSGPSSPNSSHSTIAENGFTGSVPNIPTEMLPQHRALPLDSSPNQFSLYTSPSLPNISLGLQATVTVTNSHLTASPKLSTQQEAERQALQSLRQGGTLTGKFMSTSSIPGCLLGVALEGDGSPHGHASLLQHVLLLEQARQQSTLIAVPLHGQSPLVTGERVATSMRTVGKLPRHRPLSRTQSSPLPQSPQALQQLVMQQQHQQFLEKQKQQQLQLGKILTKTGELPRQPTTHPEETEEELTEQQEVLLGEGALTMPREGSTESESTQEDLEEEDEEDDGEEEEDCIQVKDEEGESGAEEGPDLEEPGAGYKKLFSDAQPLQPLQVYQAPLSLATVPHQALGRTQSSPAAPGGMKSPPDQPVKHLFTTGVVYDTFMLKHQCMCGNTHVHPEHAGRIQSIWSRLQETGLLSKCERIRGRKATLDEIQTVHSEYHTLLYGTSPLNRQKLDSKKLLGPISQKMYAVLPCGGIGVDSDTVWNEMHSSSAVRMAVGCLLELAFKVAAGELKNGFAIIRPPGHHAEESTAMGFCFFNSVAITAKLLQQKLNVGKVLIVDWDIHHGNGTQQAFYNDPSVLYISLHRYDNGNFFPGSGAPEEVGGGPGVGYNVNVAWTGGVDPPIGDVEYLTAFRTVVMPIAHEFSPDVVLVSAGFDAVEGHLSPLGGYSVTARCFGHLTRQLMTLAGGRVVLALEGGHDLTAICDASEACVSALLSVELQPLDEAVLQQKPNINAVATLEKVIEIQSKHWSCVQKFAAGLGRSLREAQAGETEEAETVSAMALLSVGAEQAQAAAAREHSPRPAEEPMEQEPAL
Description: Competitive inhibition of HDAC5 using KI-104 as substrate by fluorescence assay
For data set [8], the target named is Histone deacetylase 9 (Homo sapiens, UniProt Q9UKV0).
Sequence of Histone deacetylase 9 (Q9UKV0 whole entry): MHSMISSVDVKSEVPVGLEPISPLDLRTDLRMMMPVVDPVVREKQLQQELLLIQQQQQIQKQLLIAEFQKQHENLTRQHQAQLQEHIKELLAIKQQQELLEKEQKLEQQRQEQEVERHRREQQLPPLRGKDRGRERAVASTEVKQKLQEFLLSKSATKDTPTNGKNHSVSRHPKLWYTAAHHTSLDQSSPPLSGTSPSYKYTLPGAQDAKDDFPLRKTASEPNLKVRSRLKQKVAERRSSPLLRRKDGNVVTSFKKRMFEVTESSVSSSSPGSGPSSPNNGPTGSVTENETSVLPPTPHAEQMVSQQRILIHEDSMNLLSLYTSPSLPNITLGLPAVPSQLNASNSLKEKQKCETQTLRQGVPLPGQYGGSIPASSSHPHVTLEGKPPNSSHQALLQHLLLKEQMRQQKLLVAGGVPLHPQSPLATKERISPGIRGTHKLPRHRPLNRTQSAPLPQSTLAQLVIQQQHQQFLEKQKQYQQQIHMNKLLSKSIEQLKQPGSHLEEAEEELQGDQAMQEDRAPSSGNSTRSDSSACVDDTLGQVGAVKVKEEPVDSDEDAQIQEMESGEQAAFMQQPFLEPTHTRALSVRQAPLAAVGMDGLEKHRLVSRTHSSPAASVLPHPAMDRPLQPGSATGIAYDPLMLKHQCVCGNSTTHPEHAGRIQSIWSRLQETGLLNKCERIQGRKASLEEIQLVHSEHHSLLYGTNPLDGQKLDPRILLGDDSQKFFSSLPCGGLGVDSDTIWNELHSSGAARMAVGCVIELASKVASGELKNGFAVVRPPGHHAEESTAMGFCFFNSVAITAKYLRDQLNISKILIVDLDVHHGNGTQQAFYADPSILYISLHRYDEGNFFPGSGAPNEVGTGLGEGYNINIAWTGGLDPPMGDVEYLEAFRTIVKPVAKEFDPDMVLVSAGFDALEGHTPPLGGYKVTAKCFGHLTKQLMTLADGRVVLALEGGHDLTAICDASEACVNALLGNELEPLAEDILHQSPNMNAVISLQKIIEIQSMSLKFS
Description: Competitive inhibition of HDAC9 using KI-104 as substrate by fluorescence assay
Data set [9] concerns the target T1, Polyamine deacetylase HDAC10 (Homo sapiens, UniProt Q969S8).
T1 sequence (Q969S8 whole entry): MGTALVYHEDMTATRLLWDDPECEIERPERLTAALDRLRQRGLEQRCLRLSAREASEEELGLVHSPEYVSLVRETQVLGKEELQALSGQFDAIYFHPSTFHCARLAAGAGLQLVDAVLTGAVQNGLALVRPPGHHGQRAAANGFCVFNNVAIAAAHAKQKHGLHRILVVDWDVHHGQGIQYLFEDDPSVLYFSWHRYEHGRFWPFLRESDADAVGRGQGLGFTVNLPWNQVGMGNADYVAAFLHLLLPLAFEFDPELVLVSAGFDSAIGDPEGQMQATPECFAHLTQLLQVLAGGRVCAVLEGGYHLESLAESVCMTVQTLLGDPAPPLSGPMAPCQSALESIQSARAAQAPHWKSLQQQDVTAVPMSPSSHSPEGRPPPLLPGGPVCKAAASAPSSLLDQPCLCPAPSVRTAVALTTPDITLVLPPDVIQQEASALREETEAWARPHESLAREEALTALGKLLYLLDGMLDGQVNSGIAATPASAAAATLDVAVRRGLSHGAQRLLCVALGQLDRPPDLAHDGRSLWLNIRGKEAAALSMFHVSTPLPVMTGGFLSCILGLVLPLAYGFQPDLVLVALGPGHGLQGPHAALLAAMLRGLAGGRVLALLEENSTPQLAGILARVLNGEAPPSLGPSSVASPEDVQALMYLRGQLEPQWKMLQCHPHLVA
Description: Competitive inhibition of HDAC10 using KI-104 as substrate by fluorescence assay

Data set [10] deals with T2, CYP1A (Homo sapiens, UniProt P04798+P05177).
T2 sequence (P04798 whole entry): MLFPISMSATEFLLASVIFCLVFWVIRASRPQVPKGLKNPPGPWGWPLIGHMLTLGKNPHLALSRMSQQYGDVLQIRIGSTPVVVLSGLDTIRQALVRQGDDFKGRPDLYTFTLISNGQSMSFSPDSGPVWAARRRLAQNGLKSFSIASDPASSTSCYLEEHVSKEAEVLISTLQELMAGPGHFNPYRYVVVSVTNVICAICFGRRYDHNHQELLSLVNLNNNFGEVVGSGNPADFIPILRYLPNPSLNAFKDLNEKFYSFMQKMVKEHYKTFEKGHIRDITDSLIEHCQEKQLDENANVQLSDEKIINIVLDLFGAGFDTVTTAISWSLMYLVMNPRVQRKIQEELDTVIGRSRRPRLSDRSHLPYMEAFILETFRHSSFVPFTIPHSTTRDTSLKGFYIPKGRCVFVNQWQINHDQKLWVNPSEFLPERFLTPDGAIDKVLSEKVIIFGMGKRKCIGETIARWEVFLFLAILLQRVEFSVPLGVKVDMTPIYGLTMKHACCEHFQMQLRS
T2 sequence (P05177 whole entry): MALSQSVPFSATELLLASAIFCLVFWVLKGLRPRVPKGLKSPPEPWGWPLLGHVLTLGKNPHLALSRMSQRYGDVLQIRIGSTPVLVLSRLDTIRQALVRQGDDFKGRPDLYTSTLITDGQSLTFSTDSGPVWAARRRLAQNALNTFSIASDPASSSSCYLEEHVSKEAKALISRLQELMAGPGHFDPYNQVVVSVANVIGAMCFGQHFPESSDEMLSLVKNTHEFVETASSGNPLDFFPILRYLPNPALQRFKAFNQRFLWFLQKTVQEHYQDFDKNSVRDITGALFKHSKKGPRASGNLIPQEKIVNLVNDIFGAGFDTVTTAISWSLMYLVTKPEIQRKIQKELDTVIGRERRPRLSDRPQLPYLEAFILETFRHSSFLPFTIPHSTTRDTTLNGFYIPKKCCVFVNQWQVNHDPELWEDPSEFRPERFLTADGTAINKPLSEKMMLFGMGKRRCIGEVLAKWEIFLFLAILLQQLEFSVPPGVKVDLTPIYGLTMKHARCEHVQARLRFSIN
The data set is described as follows: Inhibition of CYP1A in human liver microsomes by fluorescence assay. Type of data set: ADME, Microsome.

Data set [11] deals with Cytochrome P450 2C9 (Homo sapiens, UniProt P11712). The data set is described as follows: Inhibition of CYP2C9 in human liver microsomes by fluorescence assay. Type of data set: ADME, Microsome. A general note: Liver microsomes are a subcellular fraction often used to study metabolism.
Sequence of Cytochrome P450 2C9 (P11712 whole entry): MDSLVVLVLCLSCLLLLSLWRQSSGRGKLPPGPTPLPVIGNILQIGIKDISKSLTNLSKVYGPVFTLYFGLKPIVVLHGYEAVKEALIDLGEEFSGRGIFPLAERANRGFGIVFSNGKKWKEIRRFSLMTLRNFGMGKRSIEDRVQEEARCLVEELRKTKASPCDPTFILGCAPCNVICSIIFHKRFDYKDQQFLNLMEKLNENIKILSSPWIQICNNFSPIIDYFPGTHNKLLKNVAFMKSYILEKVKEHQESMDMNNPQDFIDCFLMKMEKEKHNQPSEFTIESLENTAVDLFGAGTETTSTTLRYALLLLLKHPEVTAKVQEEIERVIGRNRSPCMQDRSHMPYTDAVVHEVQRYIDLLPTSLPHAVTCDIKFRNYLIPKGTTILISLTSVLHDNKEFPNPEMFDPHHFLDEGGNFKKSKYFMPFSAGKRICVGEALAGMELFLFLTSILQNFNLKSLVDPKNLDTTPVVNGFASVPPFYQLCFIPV
Data set [12] deals with Histone deacetylase 2 (Homo sapiens, UniProt Q92769).
Sequence of Histone deacetylase 2 (Q92769 whole entry): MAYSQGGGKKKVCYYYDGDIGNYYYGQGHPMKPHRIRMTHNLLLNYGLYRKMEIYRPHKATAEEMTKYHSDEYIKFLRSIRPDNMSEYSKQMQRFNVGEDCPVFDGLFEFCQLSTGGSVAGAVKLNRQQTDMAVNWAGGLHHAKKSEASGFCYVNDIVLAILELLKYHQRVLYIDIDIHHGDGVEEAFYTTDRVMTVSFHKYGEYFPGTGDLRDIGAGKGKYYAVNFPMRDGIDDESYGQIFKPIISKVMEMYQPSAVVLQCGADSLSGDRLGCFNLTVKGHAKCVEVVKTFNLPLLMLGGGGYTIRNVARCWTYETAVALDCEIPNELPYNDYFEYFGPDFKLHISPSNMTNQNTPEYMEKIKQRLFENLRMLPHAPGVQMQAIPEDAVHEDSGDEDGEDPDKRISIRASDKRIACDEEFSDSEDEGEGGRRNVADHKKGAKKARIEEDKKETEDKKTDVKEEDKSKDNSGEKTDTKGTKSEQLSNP
Description: Competitive inhibition of HDAC2 using KI-104 as substrate by fluorescence assay

Sequence of Histone deacetylase 4 (P56524 whole entry): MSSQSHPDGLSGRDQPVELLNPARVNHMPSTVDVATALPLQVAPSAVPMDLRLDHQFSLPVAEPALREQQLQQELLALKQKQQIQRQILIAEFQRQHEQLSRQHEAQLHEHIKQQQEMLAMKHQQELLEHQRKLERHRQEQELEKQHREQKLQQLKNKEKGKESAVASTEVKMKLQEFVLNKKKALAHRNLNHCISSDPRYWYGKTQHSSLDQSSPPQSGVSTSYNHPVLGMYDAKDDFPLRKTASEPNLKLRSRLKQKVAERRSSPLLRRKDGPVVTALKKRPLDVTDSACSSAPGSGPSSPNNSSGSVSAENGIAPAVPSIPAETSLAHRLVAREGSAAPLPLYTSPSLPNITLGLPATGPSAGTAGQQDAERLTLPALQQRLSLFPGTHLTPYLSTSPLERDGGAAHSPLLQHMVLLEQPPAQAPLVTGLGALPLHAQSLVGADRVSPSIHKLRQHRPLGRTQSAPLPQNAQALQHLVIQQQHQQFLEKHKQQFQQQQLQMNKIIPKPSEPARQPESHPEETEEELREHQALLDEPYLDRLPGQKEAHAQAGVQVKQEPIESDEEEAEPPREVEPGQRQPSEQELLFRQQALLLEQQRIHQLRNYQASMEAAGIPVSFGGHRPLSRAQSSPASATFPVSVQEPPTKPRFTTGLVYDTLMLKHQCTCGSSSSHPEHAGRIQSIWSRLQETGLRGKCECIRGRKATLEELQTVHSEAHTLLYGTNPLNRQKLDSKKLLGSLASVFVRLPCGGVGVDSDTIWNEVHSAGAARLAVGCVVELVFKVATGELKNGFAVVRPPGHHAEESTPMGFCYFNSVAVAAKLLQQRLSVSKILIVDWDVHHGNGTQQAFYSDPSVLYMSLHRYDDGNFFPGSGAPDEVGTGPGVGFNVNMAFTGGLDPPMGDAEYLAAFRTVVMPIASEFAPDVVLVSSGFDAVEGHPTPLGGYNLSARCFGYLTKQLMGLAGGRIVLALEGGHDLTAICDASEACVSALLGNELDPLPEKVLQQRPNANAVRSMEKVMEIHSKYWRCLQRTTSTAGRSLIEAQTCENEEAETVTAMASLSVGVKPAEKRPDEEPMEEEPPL
Sequence of Histone deacetylase 1 (Q13547 whole entry): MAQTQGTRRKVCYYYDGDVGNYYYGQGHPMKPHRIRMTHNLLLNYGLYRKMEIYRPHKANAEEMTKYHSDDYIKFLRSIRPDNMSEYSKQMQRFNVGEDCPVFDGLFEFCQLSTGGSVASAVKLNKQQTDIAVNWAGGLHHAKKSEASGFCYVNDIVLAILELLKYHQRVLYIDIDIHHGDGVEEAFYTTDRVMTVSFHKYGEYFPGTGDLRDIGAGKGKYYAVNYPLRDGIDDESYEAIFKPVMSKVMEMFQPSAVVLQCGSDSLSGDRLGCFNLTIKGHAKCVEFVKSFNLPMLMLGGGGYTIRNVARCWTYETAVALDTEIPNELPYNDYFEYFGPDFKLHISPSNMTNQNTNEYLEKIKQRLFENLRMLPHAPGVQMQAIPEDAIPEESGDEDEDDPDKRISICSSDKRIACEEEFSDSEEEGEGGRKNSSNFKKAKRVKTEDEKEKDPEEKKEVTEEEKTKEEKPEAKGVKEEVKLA

Regarding `CCCCCCc1nc2cc(/C=C/C(=O)NO)ccc2n1CCN(C)C`, the IC50 – broadly, the concentration that gives 50% inhibition – in [1] was 0.33 µM; in data set [2], 0.23 µM; in data set [3], 0.33 µM; in [4], 0.25 µM; in data set [10], more than 25 µM; in data set [11], 10.4 µM. For the same molecule, the Ki (as a rule, the equilibrium dissociation constant of an inhibitor or competing ligand from its target) in data set [5] turned out to be 0.019 µM; in [6], 0.0053 µM; in data set [7] it was 0.0092 µM; in data set [8], 0.011 µM; in data set [9], 0.013 µM; in data set [12], 0.021 µM.
Turning to `CCCCc1nc2cc(/C=C/C(=O)NO)ccc2n1CCN(CC)CC.Cl.Cl`, the IC50 in data set [1] is 0.56 µM; in [2], 0.48 µM; in data set [3], 0.48 µM; in data set [4], 0.34 µM; in [10], more than 25 µM; in data set [11], more than 25 µM. In addition, the Ki in data set [5] turned out to be […]; in data set [6] it was 0.016 µM; in data set [7], 0.021 µM; in [8], 0.024 µM; in data set [9] it was 0.023 µM; in data set [12], 0.027 µM.
For the molecule `CN(C)CC(C)(C)Cn1c(CC(C)(C)C)nc2cc(/C=C/C(=O)NO)ccc21`, the IC50 in data set [1] was 0.57 µM; in data set [2], 0.44 µM; in data set [3] it was 0.8 µM; in data set [4], 0.5 µM; in data set [10] it was more than 25 µM; in [11], more than 25 µM. For the same molecule, the Ki in data set [5] worked out at 0.024 µM; in data set [6] it was 0.0079 µM; in [7], 0.011 µM; in data set [8], 0.011 µM; in data set [9], 0.034 µM; in data set [12] it was 0.026 µM.
